Measured values published in ChEMBL document CHEMBL5143755, “Restoration of Motor Function Post-Neurological Injury Using Serotonergic Agonist” (ACS Med Chem Lett, 2022).

Target: 5-hydroxytryptamine receptor 2A (Homo sapiens, UniProt P28223)
Test: Agonist activity at human 5-HT2A receptor assessed as activation of calcium mobilization incubated for 2 mins by Calcium-6 dye based FLIPR assay
Format: functional

Chain of 5-hydroxytryptamine receptor 2A (P28223 whole entry): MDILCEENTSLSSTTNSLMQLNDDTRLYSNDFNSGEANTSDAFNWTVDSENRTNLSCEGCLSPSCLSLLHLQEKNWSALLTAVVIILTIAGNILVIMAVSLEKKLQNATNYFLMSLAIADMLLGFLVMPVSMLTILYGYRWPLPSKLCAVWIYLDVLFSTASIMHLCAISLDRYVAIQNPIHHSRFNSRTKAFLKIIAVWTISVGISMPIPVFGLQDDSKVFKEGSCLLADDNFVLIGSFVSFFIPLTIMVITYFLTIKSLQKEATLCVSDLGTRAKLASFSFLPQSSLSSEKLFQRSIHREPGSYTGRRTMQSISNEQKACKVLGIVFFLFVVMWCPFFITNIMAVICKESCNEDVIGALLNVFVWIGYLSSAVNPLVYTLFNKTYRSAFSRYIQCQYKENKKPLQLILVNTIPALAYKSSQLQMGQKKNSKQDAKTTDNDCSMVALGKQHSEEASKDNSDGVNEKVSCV

Structure (SMILES): [2H]C1([2H])CC(c2c[nH]c3cccc(O)c23)C([2H])([2H])N1 (stereo not given)
- EC50: > 10000 nM

Structure (SMILES): [2H]C([2H])N1CCC(c2c[nH]c3cccc(O)c23)C1 (stereo not given)
- EC50: < 1000 nM

Structure (SMILES): [2H]C1([2H])CC(c2c[nH]c3cccc(OCc4ccccc4)c23)C([2H])([2H])N1 (stereo not given)
- EC50: < 1000 nM

Structure (SMILES): [2H]C1([2H])CC(c2c[nH]c3cccc(OCc4ccccc4)c23)C([2H])([2H])N1C (stereo not given)
- EC50: > 10000 nM

Structure (SMILES): [2H]C1([2H])CC(c2c[nH]c3cccc(O)c23)C([2H])([2H])N1C (stereo not given)
- EC50: < 1000 nM
